Data as given in publication PMC4468608, “A distinct p53 target gene set predicts for response to the selective p53–HDM2 inhibitor NVP-CGM097” (eLife, 2015).
Read-outs that look alike come from different tables or passages of the source.

Test system: cell lines from the Cancer Cell Line Encyclopedia (CCLE)
Experiment: High-throughput cell viability assay, CCLE cell line panel (n = 356)
Assay type: cell-based, human
Settings: Homo sapiens
Procedure: Cell lines were partitioned into sensitive and insensitive groups based on compound potency (IC50). […] All other cell lines were obtained from ATCC (American Type Culture Collection), DSMZ (Deutsche Sammlung von Mikroorganismen und Zellkulturen), and HSRRB (Health Science Research Resources Bank) and cultured in RPMI or Dulbecco's modified Eagle's medium plus 10% FBS (Invitrogen, Carlsbad, CA) at 37°C, 5% CO2.

COc1cc2c(cc1OC(C)C)[C@H](c1ccc(Cl)cc1)N(c1ccc(N(C)C[C@H]3CC[C@H](N4CCNC(=O)C4)CC3)cc1)C(=O)C2 [NVP-CFC218]
IC50 (LOX IMVI, TP53 WT): > 8 µM | IC50 (LP-1, TP53 MUT): 7.24 µM | IC50 (LS-1034, LS1034, TP53 MUT): > 8 µM | IC50 (LUDLU-1, LUDLU-1, TP53 MUT): > 8 µM | IC50 (Loucy, TP53 MUT): 7.62 µM | IC50 (Lu-65, LU65, TP53 MUT): > 8 µM | IC50 (Lu-99, LU99, TP53 WT): 2.71 µM | IC50 (MC116, MC116, TP53 MUT): 5.21 µM | IC50 (MDA-MB-415, MDA-MB-415, TP53 MUT): 7.62 µM | IC50 (MDA-MB-453, MDA-MB-453, TP53 WT): > 8 µM | IC50 (MDA-MB-468, MDA-MB-468, TP53 MUT): > 8 µM | IC50 (MEG-01, MEG-01, TP53 MUT): > 8 µM | IC50 (MFE-280, MFE-280, TP53 MUT): 6.92 µM | IC50 (MFE-296, MFE-296, TP53 MUT): > 8 µM | IC50 (MFE-319, TP53 MUT): > 8 µM | IC50 (MG-63, MG-63, TP53 WT): > 8 µM | IC50 (MHH-ES-1, read-out: NVP- CFC218 IC50 (µM), cell line MHH-ES-1, bone, TP53 MUT): > 8 µM | IC50 (MIA PaCa-2, MIA PaCa-2, TP53 MUT): > 8 µM | IC50 (MKN-74, MKN74, TP53 MUT): > 8 µM | IC50 (MOG-G-CCM, TP53 MUT): > 8 µM | IC50 (MOG-G-UVW, TP53 WT): > 8 µM | IC50 (MOLM16, MOLM-16, TP53 MUT): > 8 µM | IC50 (MOLM-13, MOLM-13, TP53 WT): 0.69 µM | IC50 (MOR/CPR, TP53 MUT): > 8 µM | IC50 (MPP 89, TP53 WT): > 8 µM | IC50 (Malme-3M, read-out: NVP- CFC218 IC50 (µM), cell line Malme-3M, skin, TP53 WT): > 8 µM | IC50 (MeWo, TP53 MUT): > 8 µM | IC50 (Mono-Mac-1, MONO-MAC-1, TP53 MUT): > 8 µM | IC50 (NALM-6, NALM-6, TP53 WT): 1.16 µM | IC50 (NB-4, TP53 MUT): > 8 µM | IC50 (NCI-H23, NCI-H23, TP53 MUT): > 8 µM | IC50 (NCI-H211, NCI-H211, TP53 MUT): > 8 µM | IC50 (NCI-H358, NCI-H358, TP53 WT): > 8 µM | IC50 (NCI-H441, NCI-H441, TP53 MUT): > 8 µM | IC50 (NCI-H460, read-out: NVP- CFC218 IC50 (µM), cell line NCI-H460, lung, TP53 WT): > 8 µM | IC50 (NCI-H520, NCI-H520, TP53 MUT): > 8 µM | IC50 (NCI-H647, read-out: NVP- CFC218 IC50 (µM), cell line NCI-H647, lung, TP53 MUT): > 8 µM | IC50 (NCI-H650, NCI-H650, TP53 MUT): > 8 µM | IC50 (NCI-H747, NCI-H747, TP53 MUT): > 8 µM | IC50 (NCI-H810, NCI-H810, TP53 MUT): > 8 µM | IC50 (NCI-H889, NCI-H889, TP53 MUT): > 8 µM | IC50 (NCI-H1299, read-out: NVP- CFC218 IC50 (µM), cell line NCI-H1299, lung, TP53 WT): > 8 µM | IC50 (NCI-H1355, NCI-H1355, TP53 MUT): > 8 µM | IC50 (NCI-H1373, NCI-H1373, TP53 MUT): > 8 µM | IC50 (NCI-H1435, NCI-H1435, TP53 MUT): > 8 µM | IC50 (NCI-H1573, NCI-H1573, TP53 MUT): > 8 µM | IC50 (NCI-H1581, NCI-H1581, TP53 MUT): > 8 µM | IC50 (NCI-H1648, NCI-H1648, TP53 MUT): > 8 µM | IC50 (NCI-H1650, read-out: NVP- CFC218 IC50 (µM), cell line NCI-H1650, lung, TP53 MUT): > 8 µM | IC50 (NCI-H1651, NCI-H1651, TP53 MUT): > 8 µM | IC50 (NCI-H1666, NCI-H1666, TP53 WT): 0.88 µM | IC50 (NCI-H1693, read-out: NVP- CFC218 IC50 (µM), cell line NCI-H1693, lung, TP53 MUT): > 8 µM | IC50 (NCI-H1703, read-out: NVP- CFC218 IC50 (µM), cell line NCI-H1703, lung, TP53 MUT): > 8 µM | IC50 (NCI-H1734, NCI-H1734, TP53 MUT): > 8 µM | IC50 (NCI-H1792, NCI-H1792, TP53 MUT): > 8 µM | IC50 (NCI-H1915, NCI-H1915, TP53 MUT): > 8 µM | IC50 (NCI-H1944, NCI-H1944, TP53 WT): 6.39 µM | IC50 (NCI-H1975, NCI-H1975, TP53 MUT): > 8 µM | IC50 (NCI-H2009, NCI-H2009, TP53 MUT): > 8 µM | IC50 (NCI-H2052, NCI-H2052, TP53 WT): 3.36 µM | IC50 (NCI-H2087, NCI-H2087, TP53 MUT): > 8 µM | IC50 (NCI-H2110, NCI-H2110, TP53 MUT): > 8 µM | IC50 (NCI-H2122, NCI-H2122, TP53 MUT): 1.9 µM | IC50 (NCI-H2172, NCI-H2172, TP53 WT): > 8 µM | IC50 (NCI-H2196, NCI-H2196, TP53 MUT): > 8 µM | IC50 (NCI-H2347, NCI-H2347, TP53 WT): > 8 µM | IC50 (NCI-H2444, NCI-H2444, TP53 MUT): > 8 µM | IC50 (NCI-H2452, NCI-H2452, TP53 WT): > 8 µM | IC50 (NCO2, TP53 MUT): > 8 µM | IC50 (OAW-42, read-out: NVP- CFC218 IC50 (µM), cell line OAW42, ovary, TP53 WT): > 8 µM | IC50 (OC 316, TP53 MUT): > 8 µM | IC50 (OCI-AML2, OCI-AML2, TP53 WT): 2.38 µM | IC50 (OCI-Ly10, OCI-LY10, TP53 MUT): > 8 µM | IC50 (OCI-M1, OCI-M1, TP53 MUT): > 8 µM | IC50 (OE19, read-out: NVP- CFC218 IC50 (µM), cell line OE19, oesophagus, TP53 MUT): > 8 µM | IC50 (OE33, OE33, TP53 MUT): > 8 µM | IC50 (ONS-76, ONS-76, TP53 WT): > 8 µM | IC50 (OPM-2, OPM-2, TP53 MUT): > 8 µM | IC50 (OV-90, OV-90, TP53 MUT): > 8 µM | IC50 (OVCAR-3, NIH:OVCAR-3, TP53 MUT): > 8 µM | IC50 (OVCAR-4, OVCAR-4, TP53 MUT): > 8 µM | IC50 (OVCAR-8, read-out: NVP- CFC218 IC50 (µM), cell line OVCAR-8, ovary, TP53 MUT): > 8 µM | IC50 (OVSAHO, TP53 MUT): > 8 µM | IC50 (P3HR-1, P3HR-1, TP53 MUT): > 8 µM | IC50 (P12-Ichikawa, TP53 MUT): 2.5 µM | IC50 (P31-FUJ, P31/FUJ, TP53 MUT): > 8 µM
